According to patent publication US11771705B2, “Adjuvant therapy for use in prostate cancer treatment” (priority 2017, dated 2023):
Like-named read-outs stand apart in the source and are kept apart here.

Key:
[1] = tested on: adenocarcinoma of the prostate; test: Estetrol in prostate cancer patients treated with ADT, randomized placebo controlled (Example 3); format: in vivo, male patients; settings: GnRH agonist plus 40 mg estetrol per day oral, 24 weeks
Description: Male patients who have histologically confirmed adenocarcinoma of the prostate and who are qualifying for treatment with androgen deprivation therapy (ADT: GnRH agonist) are included. The study is randomized placebo controlled.
Randomisation takes place after a patient is found to be eligible at the baseline visit. Subjects receive the study medication for a period of 24 weeks in total.
Subjects receive blinded study medication (oral administration) as follows: • Investigational product: GnRH agonist plus 40 mg estetrol (E4) per day; • Placebo: GnRH agonist plus placebo.
Medication should be taken in the morning between 8:00-10:00 AM. All patients concomitantly receive a prophylactic dose of dabigatran (220 mg once daily) or another anticoagulant.
A total of 30 patients is being dosed as follows: 20 patient in the estetrol group and 10 patients in the reference therapy group (placebo).
The primary objective is to assess the additional effects of E4 on total T and free T. Secondary objectives include the assessment of the effects of E4 on SHBG, PSA response and lipids and lipoproteins. […]

[2] = tested on: adenocarcinoma of the prostate; test: Estetrol on testosterone suppression and quality of life in prostate cancer patients treated with ADT (Example 4); format: in vivo, male patients; settings: GnRH agonist plus 40 mg estetrol monohydrate p.o. per day, 24 weeks
Description: Male patients who have histologically confirmed adenocarcinoma of the prostate and who are qualifying for treatment with androgen deprivation therapy (ADT: GnRH agonist) participate in randomized placebo controlled study. Randomisation takes place after a patient is found to be eligible at the baseline visit. Subjects receive the study medication for a period of 24 weeks in total. Subjects receive blinded study medication: • Investigational product: GnRH agonist plus 40 mg estetrol monohydrate (E4) p.o. per day; • Placebo: GnRH agonist plus placebo. Selection of the GnRH agonist is left to the doctors treating the individual patients. Medication is taken in the morning between 8:00-10:00 AM. A total of 60 patients is dosed as follows: 40 patient in the estetrol group and 20 patients in the reference therapy group (placebo). Effects of medication on total T, free T, SHBG, hot flushes, PSA response, endocrine parameters, adrenal androgens and the lipid profile are assessed. Further assessed are the effects on health related quality of life (using the Functional Assessment of Cancer Therapy Prostate (FACT-P) questionnaire and a small questionnaire on the presence and absence of endocrine related symptoms (Q-man questionnaire)) and effects on bone turnover (bone markers).

[3] = 20 mg or 40 mg daily, cited from earlier work
[4] = format: in vivo, healthy men
Description: A phase I, double-blind, randomised, placebo-controlled, multiple dose study to evaluate the safety, pharmacokinetics and pharmacodynamics of multiple dosages of estetrol in healthy men.
Male participants aged between 40 and 70 years were allocated to one of the following groups: • Group 1: 20 mg E4 (estetrol) or placebo; • Group 2: 40 mg E4 (estetrol) or placebo; • Group 3: 60 mg E4 (estetrol) or placebo.
A total of 15 subjects were assigned to each dose group: 10 subjects were randomised to receive the active treatment (E4), 5 subjects were randomised to receive placebo treatment. In total […] participated in this study.
Dosing began with Group 1. The other groups were dosed consecutively. Dose escalation to the next E4 dose group proceeded based on reported adverse events (AEs), SHBG levels, lipids and haemostatic parameters. The decision to continue with the next higher E4 dose level was made by the Investigator, an independent expert and the Sponsor.
E4 was supplied as tablets and taken orally every morning between 8:00-10:00 am, for 28 days. The total duration of the study, including screening was 84 days for each subject (Screening from Day −28 till Day −1, Clinical part from Day 1 till Day 56).
There were two primary outcome parameters in this study. First primary parameter was the safety evaluation of E4. Safety variables included vital signs, routine laboratory tests, physical examination, ECG measurement and monitoring of (S)AEs.
Second primary parameter was the hormones related to prostate function. FSH, LH, E2, total testosterone, free testosterone and sex hormone-binding globulin (SHBG) were measured.
Secondary parameters included other pharmacodynamic and pharmacokinetic parameters. The pharmacodynamic parameters which were assessed are the following: • Haemostatic factors: (extrinsic) APC-resistance, prothrombin fragment 1+2, free tissue factor pathway inhibitor (TFPI), antithrombin activity, protein S activity, D-dimer, angiotensinogen; • Lipids and lipoproteins: total cholesterol, triglycerides, HDL-cholesterol, LDL-cholesterol and lipoprotein(a) (Lp(a)); • Carbohydrates: fasting serum glucose; • Bone turnover markers: osteocalcin, type I collagen telopeptide (CTX-1) and parathyroid hormone (PTH); • Prostate-specific antigen (PSA).
Pharmacokinetics were evaluated by measuring E4 trough levels on Day 2, 7, 14 and 28. Furthermore, on Day 28 before and at several time points after dosing E4 concentrations were measured.

[5] = format: in vivo, male patients; settings: average of Day 7 and Day 14
Description: For each group dosed at 2, 10, 20, 40 and 60 mg estetrol daily (oral administration), 7 to 10 male patients were tested for their plasma content in estetrol at Day 7 and at Day 14. For each dose group, the average trough level of all patients across both days was calculated.

[6] = Day 28 vs Day 1, 20, 40, 60 mg daily

C[C@]12CC[C@@H]3c4ccc(O)cc4CC[C@H]3[C@@H]1[C@@H](O)[C@@H](O)[C@@H]2O [estetrol]
Efficacy and quality of life of ADT treatment for prostate cancer [1]: effective therapy to improve efficacy and quality of life | Efficacy of ADT [2]: improves efficacy of ADT | Quality of life of the prostate cancer patients [2]: improves quality of life | Libido decreased during treatment ([3]; both cohorts): 8 of 20 | Nipple tenderness reported ([3]; both cohorts): 7 of 20 | Body weight and safety parameters ([3]; healthy men 40-70 years): did not change | Estradiol level ([3]; healthy men 40-70 years): decreased | FSH level ([3]; healthy men 40-70 years): decreased | Free testosterone level ([3]; healthy men 40-70 years): decreased | LH levels ([3]; healthy men 40-70 years): did not change | SHBG levels ([3]; healthy men 40-70 years): increased | Total testosterone level ([3]; healthy men 40-70 years): decreased | HDL Cholesterol [4, 6]: small increase | Lowering effect on LDL Cholesterol [4, 6]: about 20% | TG (triglycerides) [4, 6]: no changes | Free testosterone level ([4]; Day 28 vs Day 1, 20, 40, 60 mg daily (FIG. 1A)): decreased | Total testosterone level ([4]; Day 28 vs Day 1, 20, 40, 60 mg daily (FIG. 1B)): decreased | SHBG level ([4]; Day 28 vs Day 1, 20, 40, 60 mg daily (FIG. 1C)): increase | LH level ([4]; Day 28 vs Day 1, 20, 40, 60 mg daily (FIG. 1D)): not much change | FSH levels ([4]; Day 28 vs Day 1, 20, 40, 60 mg daily (FIG. 1E)): decreased | Effects on bone (osteocalcin, CTX-1) ([4]; Day 28 vs Day 1, 20, 40, 60 mg daily (FIGS. 2I, 2J)): beneficial estrogenic effects | Changes in vital signs, ECG, physical examination and body weight ([4]; daily oral dose of 20 mg, 40 mg or 60 mg for 28 days): No clinically relevant changes | Tolerability ([4]; daily oral dose of 20 mg, 40 mg or 60 mg for 28 days, healthy men aged 40-70 years): well tolerated | LH levels after E4 administration ([4]; shortly after dosing, only for a few hours): decreased | Trough plasma level ([5]; daily oral dose 2 mg): 198 pg/mL | Trough plasma level ([5]; daily oral dose 10 mg): 1056 pg/mL | Trough plasma level ([5]; daily oral dose 20 mg): 2187 pg/mL | Trough plasma level ([5]; daily oral dose 40 mg): 4417 pg/mL | Trough plasma level ([5]; daily oral dose 60 mg): 6157 pg/mL
